Laboratory results: US12692274B2, “Tetrahydroisoquinoline derivatives for the treatment of red blood disorders and inflammatory diseases” (Sanofi, priority 2020, dated 2026)
“And” between values parts separate entries of the source, which are not always exact repeats. Identical values can stand only once.

How the values were obtained:
[1] = test system: NQO1 activation in BEAS-2B cells; assay: BEAS-2B cellular MTT assay of NQO1 activation, 0% HSA; type: cell-based
Method in brief: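 For the 0% HSA condition, cells were seeded into collagen plates in HSA-free medium. Culture was BEAS-2B in BEBM plus BEGM SingleQuots lacking GA-1000, held under 70% confluence, at a seeding density reaching 95-100% confluence by 48 h.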

[2] = test system: NQO1 activation in BEAS-2B cells; assay: BEAS-2B cellular MTT assay of NQO1 activation, 0.3% HSA; type: cell-based
Method in brief: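 MTT read-out in BEAS-2B cells grown in BEBM with SingleQuots, no GA-1000, kept below 70% confluence; plates coated with collagen, with 0.3% or 0% HSA medium, seeded to 95-100% confluency at 48 h, 37 °C, 5% CO2.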

[3] = target: HIS-Keap1 full length / Biotin-Nrf2 (16-mer) (Homo sapiens, UniProt Q14145); assay: biochemical
[4] = Homo sapiens, serum free, read-out: BEAS EC50 (nM) serum free
[5] = Homo sapiens, BEAS+, read-out: BEAS+ EC50
[6] = Homo sapiens, Serum Free W, read-out: BEAS EC50 (nM) Serum Free W
[7] = Serum Free W, read-out: BEAS EC50 (nM) Serum Free W
[8] = BEAS+ W, read-out: BEAS+ W EC50
[9] = Homo sapiens, BEAS+ W, read-out: BEAS+ W EC50
[10] = serum free, read-out: BEAS EC50 (nM) serum free

HIS-Keap1 full length / Biotin-Nrf2 (16-mer), sequence (Q14145 whole entry): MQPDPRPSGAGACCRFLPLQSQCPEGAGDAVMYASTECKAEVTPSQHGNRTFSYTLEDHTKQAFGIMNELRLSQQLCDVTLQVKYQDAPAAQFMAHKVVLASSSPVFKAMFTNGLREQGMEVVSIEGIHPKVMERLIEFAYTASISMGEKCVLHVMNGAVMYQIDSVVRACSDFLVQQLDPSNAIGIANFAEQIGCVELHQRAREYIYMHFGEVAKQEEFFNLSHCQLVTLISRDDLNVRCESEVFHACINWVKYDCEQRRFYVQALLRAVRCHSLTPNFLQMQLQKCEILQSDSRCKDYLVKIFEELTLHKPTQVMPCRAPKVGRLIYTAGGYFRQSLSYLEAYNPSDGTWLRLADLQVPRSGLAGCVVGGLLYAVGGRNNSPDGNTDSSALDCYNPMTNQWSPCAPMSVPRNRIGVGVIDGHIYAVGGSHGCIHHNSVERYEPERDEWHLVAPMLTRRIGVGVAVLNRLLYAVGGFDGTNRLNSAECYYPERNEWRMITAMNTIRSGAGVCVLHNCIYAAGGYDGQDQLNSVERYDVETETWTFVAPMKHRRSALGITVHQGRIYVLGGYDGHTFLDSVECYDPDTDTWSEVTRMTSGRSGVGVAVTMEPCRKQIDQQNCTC

| Structure (SMILES) | EC50 [1, 4] | EC50 [2, 5] | IC50 [3] | EC50 [1, 6] | EC50 [1, 7] | EC50 [2, 8] | EC50 [2, 9] | EC50 [1, 10] | EC50 ([2]; BEAS+, read-out: BEAS+ EC50) |
| --- | --- | --- | --- | --- | --- | --- | --- | --- | --- |
| Cc1cc2ccc1C(=O)N1CCc3ccc(cc3C1)C(C(C)(C)C(=O)O)c1ccc3c(c1)nnn3CCCCCCO2 (centres unmarked) [Compound 299] | 0.6 nM | 3.6 nM | < 0.1 nM | – | – | – | – | – | – |
| COc1cc2ccc1CCCCCCn1nnc3c(C)c(ccc31)[C@H](CC(=O)O)c1ccc3c(c1)CN(CC3)C2=O [Compound 102] | – | – | 4.5 nM and 4.2 nM | 25.1 nM | 24.6 nM | 104 nM | 117 nM | – | – |
| Cc1c2ccc3c1nnn3CCCCCc1ccc(c(F)c1)C(=O)N1CCc3ccc(cc3C1)C2CC(=O)O (centres unmarked) [Compound 266] | 2.1 nM | 2.6 nM | 0.5 nM | – | – | – | – | – | – |
| COc1cc2ccc1CCCCCCn1nnc3c(C)c(ccc31)C(CC(=O)O)c1ccc3c(c1)CN(CC3)C2=O (centres unmarked) [Compound 189] | 4.4 nM | 18.8 nM | 22.8 nM and 23.3 nM | – | – | – | – | 6 nM | 15.9 nM |
| O=C(O)CC1c2ccc3c(c2)CN(CC3)C(=O)c2ccc(cc2Cl)OCCCCCCn2nnc3cc1ccc32 (centres unmarked) [Compound 305] | 345 nM | 651 nM | < 0.1 nM | – | – | – | – | – | 748 nM |
| Cc1c2ccc3c1nnn3C/C=C/COCc1ccc(c(F)c1)C(=O)N1CCc3ccc(cc3C1)C2CC(=O)OCCO (centres unmarked) [Compound 361] | – | – | 918 nM and 740 nM | > 1000 nM | – | 1280 nM | 1660 nM | – | – |
| O=C(O)CC1c2ccc3c(c2)CN(CC3)C(=O)c2ccc(cc2F)CCCCCn2nnc3c(Cl)c1ccc32 (centres unmarked) [Compound 145] | 0.6 nM | 0.4 nM | 0.1 nM | – | – | – | – | 0.5 nM | 0.7 nM |
| Cc1c2ccc3c1nnn3CCCCCCc1ccc3nc(n(C)c3c1)C(=O)N1CCc3ccc(cc3C1)C2CC(=O)O (centres unmarked) [Compound 192] | 75.6 nM | 114 nM | 7 nM and 6.8 nM | – | – | – | – | 63.7 nM | 124 nM |
| Cc1c2cnc3c1nnn3CCCCCc1cccc(c1)C(=O)N1CCc3ccc(cc3C1)C2CC(=O)O (centres unmarked) [Compound 354] | – | – | 20.1 nM and 13.8 nM | > 1000 nM | – | 2130 nM | 2700 nM | – | – |
| Cc1c2ccc3c1nnn3CCCCCCOc1ccc(cc1)C(=O)N1CCc3ccc(cc3C1)C2CC(=O)O (centres unmarked) [Compound 247] | 29.4 nM | 45.4 nM | 1.6 nM and 1.7 nM | – | – | – | – | 26.3 nM | 47.2 nM |
| Cc1c2ccc3c1nnn3CCCCCCc1cc(F)c(c(F)c1)C(=O)N1CCc3ccc(cc3C1)C2CC(=O)O (centres unmarked) [Compound 253] | 5.4 nM | 6.6 nM | 1.3 nM | – | – | – | – | – | – |
| Cc1c2ccc3c1nnn3CCCCCc1ccc3c(c1)cc(n3C)C(=O)N1CCc3ccc(cc3C1)[C@@H]2[C@H](C)C(=O)O (racemic) [Compound 113] | – | – | 1.1 nM and 0.9 nM | 1.6 nM | 1.8 nM | 48.7 nM | 62.7 nM | – | – |
| Cc1cc2ccc1OCCCCCCn1nnc3c(C)c(ccc31)C(CC(=O)O)c1ccc3c(c1)CN(CC3)C2=O (centres unmarked) [Compound 260] | 400 nM | 337 nM | 6 nM | – | – | – | – | 403 nM | 484 nM |
| C[C@@H](C(=O)O)[C@@H]1c2ccc(nc2)OCC/C=C/Cc2ccc(cc2)C(=O)N2CCc3ccc1cc3C2 [Compound 46] | – | – | 0.4 nM and 0.3 nM | 0.7 nM | 0.5 nM | 2 nM | 3.3 nM | – | – |
| Cc1c2cnc3c1nnn3CCCCCCc1ccc(cc1)C(=O)N1CCc3ccc(cc3C1)[C@H]2CC(=O)O [Compound 140] | 11.6 nM | 30.4 nM | 0.3 nM and 0.5 nM | – | – | – | – | 8.8 nM | 27.3 nM |
| Cc1c2ccc3c1nnn3CCCOCCOc1cc(F)c(c(F)c1)C(=O)N1CCc3ccc(cc3C1)[C@@H]2[C@@H](C)C(=O)O [Compound 367] | 10.3 nM | 12.2 nM | 0.4 nM | – | – | – | – | 12.5 nM | 12.3 nM |
| O=C(O)C[C@@H]1c2cnc(nc2)OCC/C=C/Cc2c(F)c(F)c(c(F)c2F)C(=O)N2CCc3ccc1cc3C2 [Compound 40] | – | – | 46.2 nM and 53.6 nM | > 1000 nM | – | – | 3580 nM | – | – |
| Cc1cc2ccc1OCCCCCn1nnc3c(C)c(ccc31)C(CC(=O)O)c1ccc3c(c1)CN(CC3)C2=O (centres unmarked) [Compound 261] | 89.8 nM | 198 nM | 3 nM | – | – | – | – | 93 nM | 113 nM |
| Cc1cc2ccc1C(=O)N1CCc3ccc(cc3C1)C(CC(=O)O)c1ccc(nc1)OCCCCC2 (centres unmarked) [Compound 154] | 16.6 nM | 37.8 nM | 3.3 nM and 3.5 nM | – | – | – | – | 13.6 nM | 35.8 nM |
| Cc1c2ccc3c1nnn3CCCCCOc1ccc(cc1F)C(=O)N1CCc3ccc(cc3C1)C2CC(=O)O (centres unmarked) [Compound 275] | 123 nM | 85.9 nM | 1.9 nM | – | – | – | – | – | – |
| Cc1c2n(C)c3ccc(cc13)CCCCCCn1nnc3c(C)c(cnc31)[C@@H](CC(=O)O)c1ccc3c(c1)CN(CC3)C2=O [Compound 63] | – | – | 0.5 nM and 0.4 nM | 0.7 nM | 0.9 nM | 3.7 nM and 3.5 nM | 2.8 nM | – | – |
| Cc1c2ccc3c1nnn3CCCCCCc1ccc(cc1)C(=O)N1CCc3ccc(cc3C1)[C@H]2[C@H](C)C(=O)O [Compound 134] | 22.6 nM | 80.5 nM | 3.8 nM (2×) and 10.4 nM and 9.8 nM | 56.5 nM | 90.8 nM | 203 nM | 143 nM | 20.2 nM | 72.8 nM |
| Cn1c2cc3cc(cnc31)CCCCCOc1ccc(cn1)C(CC(=O)O)c1ccc3c(c1)CN(CC3)C2=O (racemic) [Compound 158, 2-(33-methyl-2-oxo-15-oxa-1,7,17,33-tetrazahexacyclo[19.5.3.216,19.13,6.15,9.024,28]tritriaconta-3,5,7,9(32),16,18,21(29),22,24(28),30-decaen-20-yl)acetic Acid] | 18.2 nM | 403 nM | 3.6 nM and 3.2 nM | – | – | – | – | 22.1 nM | 400 nM |
| Cc1c2ccc3c1nnn3CCCCCCOc1ccc(cc1)C(=O)N1CCc3ccc(cc3C1)[C@H]2[C@H](C)C(=O)O [Compound 159] | 113 nM | 461 nM | 6.9 nM and 7.2 nM | – | – | – | – | 122 nM | 480 nM |
| Cc1cc2ccc1C(=O)N1CCc3ccc(cc3C1)C(CC(=O)O)c1cnc(nc1C)OCCCCO2 (centres unmarked) [Compound 195] | 5570 nM | > 10000 nM | 62.3 nM and 69.9 nM | – | – | – | – | > 10000 nM | – |
| Cn1cc2c3ccc(cc31)CCCCOc1ccc(cn1)C(CC(=O)O)c1ccc3c(c1)CN(CC3)C2=O (centres unmarked) [Compound 121] | – | – | > 990 nM | > 1000 nM | – | – | > 10000 nM | – | – |
| Cc1cc2ccc1C(=O)N1CCc3ccc(cc3C1)[C@H]([C@H](C)C(=O)O)c1ccc3c(c1)nnn3CCCCCCO2 [Compound 292] | 349 nM | 637 nM | 7.7 nM and 5.9 nM | – | – | – | – | – | – |
| O=C(O)CC1c2ccc3c(c2)CN(CC3)C(=O)c2ccc(cn2)CCCCCn2nnc3c(Cl)c1ccc32 (centres unmarked) [Compound 220] | 178 nM | 314 nM | 1.4 nM and 1.2 nM | – | – | – | – | 182 nM | 346 nM |
| Cn1c2cc3cc(cnc31)CCCCCn1nnc3c(Cl)c(ccc31)C(CC(=O)O)c1ccc3c(c1)CN(CC3)C2=O (centres unmarked) [Compound 174] | 5.8 nM | 29.4 nM | 2 nM and 2.1 nM | – | – | – | – | 7.3 nM | 15.5 nM |
